According to PMC2816223, “Designed Coiled-Coil Peptides Inhibit the Type Three Secretion System of Enteropathogenic Escherichia coli” (PLoS ONE, 2010):
Ends that are not written are not given here.

Legend:
[1] = test system: TTSS-mediated lysis of sheep RBC by EPEC E2348/69; settings: for inhibition of TTSS-mediated RBC lysis caused by E2348/69: peptide 0.56 mg/ml, bacteria preincubated with peptide 1 h, then 5% sheep RBC 3 h at 37°C, released hemoglobin OD 543 nm, relative to EPEC alone (100%), triplicate
Method: Twelve-well plates containing peptides and bacteria were incubated for 1 h to allow their interaction. A 5% suspension of RBC was then added, plates were incubated for another 3 h, and supernatants were monitored for released hemoglobin.
K12 means the hemolysis caused by the E. coli non-pathogenic strain. […] Each assay was done by triplicate.
The plates were incubated for 1 h under a 5% CO2 atmosphere to allow the interaction between peptides and bacteria. In turn, red blood cells (RBCs) were separated by centrifugation from fresh defibrinated sheep blood, which was obtained by jugular vein punction, washed three times with 10 mM PBS (pH 7.4) and resuspended at 5% in PBS. Then, 2 ml of the 5% suspension of RBC in PBS was added to the cultures in the plates and incubated for 3 h at 37°C under a 5% CO2 atmosphere. The suspension was removed from the plates and centrifuged at 12,000×g for 1 min. Supernatants were monitored for the presence of released hemoglobin by measuring the OD at 543 nm.

[2] = test system: EspA, EspB, EspD and Tir secretion by EPEC E2348/69; test: In vitro TTSS protein secretion, Western blot of culture supernatants and bacterial lysates; type: cell-based, enteropathogenic E. coli (EPEC) E2348/69; settings: EPEC incubated 4 h in DMEM with peptide 0.56 mg/ml; for secretion of EspD, Western blot: protein detected in pellet of lysed bacteria
Method: EPEC E2348/69 bacterial cultures were incubated in the presence of CoilA or CoilB peptides and concentrated supernatants and bacterial extracts were analyzed by Western blotting using specific antisera directed to EspA, EspB, EspD or Tir. The same amount of cell monolayer was loaded in each lane. pH represents a mock control to rule out the biological influence of alkaline pH used to dissolve peptides. PBS at alkaline pH was used in volumes identical to those in which peptides were added to cultures.
In order to determine the effect of syntethic peptides in the production and excretion of TTSS-proteins by EPEC, cellular and supernatants culture extracts of peptide-treated bacteria were subjected to western blot analysis with specific antisera. The E2348/69 strain grown overnight at 37°C in LB was diluted 1∶100 into 2 ml of DMEM containing CoilA or CoilB peptides at a concentration of 0.56 mg/ml, respectively, and cultured for another 4 h in the presence of 5% CO2. After collecting by centrifugation, bacteria were suspended in 2X SDS sample buffer and boiled for 5 min. The proteins present in culture supernatants were precipitated by the addition of trichloroacetic acid at 20% (wt/vol) and incubated overnight at 4°C. The protein precipitates were then collected by centrifugation at 20,000×g for 25 min, washed twice with 200 µl of ice-cold acetone and resuspended in 20 µl Tris-HCl 10 mM pH 8.8. Whole-cell extracts and culture supernatants were then analyzed by Western blotting using polyclonal rabbit antibodies against EspA, EspB, EspD and Tir recombinant proteins as described by Vilte et al. Primary antibodies were detected with horseradish peroxidase-conjugated goat anti-rabbit IgG (Sigma Chemical Co., St. Louis, MO) diluted 1∶10,000.

[3] = test system: EPEC adherence to HEp-2 cells; test: Non-adherent bacteria in supernatant of infected HEp-2 cells, HEp-2 detaching; type: cell-based, enteropathogenic E. coli (EPEC) E2348/69; settings: data not shown; for non-adherent bacteria in the supernatant of HEp-2 cells vs EPEC without peptides: EPEC preincubated with peptide; for HEp-2 detaching activity (cytopathic effect) by EPEC: bacteria preincubated with peptide
Method: (§1) For that, HEp-2 cells were treated with EPEC preincubated either with or without CoilA or CoilB, and EspA and Tir were then visualized using specific antibodies and confocal microscopy.
(§2) HEp-2 monolayers were inoculated with bacteria pretreated with CoilA or CoilB peptides as described for fluorescent actin staining. After infection, the supernatant was removed from the plates and serial dilutions were cultured overnight at 37°C on LB agar plates to determine the viability of bacteria. In turn, the monolayers were resuspended in 40 µl of lysis buffer (1% Triton X-100) and protease inhibitor mix (Complete™ protease inhibitors, Roche). This material was subjected to Western blotting as mentioned above.

[4] = Solubilization of peptides in PBS pH 10.0 / precipitation; type: physicochemical
Method: CoilA, CoilB, CoilC, CoilD and PepTir peptides were synthesized commercially (Genbiotech, Buenos Aires). Peptides were solubilized with PBS (pH 10.0). […] EPEC E2348/69 [42] was kindly provided by Marta Rivas, ANLIS-Instituto Nacional de Microbiología Dr. Carlos G. Malbrán, Buenos Aires. […] Bacteria were grown in Luria Bertani broth (LB) or Dulbecco's modified Eagle medium (DMEM) lacking phenol red (Gibco-BRL), without antibiotics and bovine fetal serum at 37°C without shaking.

[5] = test system: EPEC E2348/69 adhering to HEp-2 cells; test: Fluorescent actin staining (FAS), A/E lesion / pedestal formation in HEp-2 cells; type: cell-based, enteropathogenic E. coli (EPEC) E2348/69; settings: peptide 0.56 mg/ml preincubated 1 h with EPEC, MOI 7, 2 h infection, 100 cells examined; EPEC without peptides 80%
Source text: Since CoilA, CoilB and CoilD were able to inhibit the hemolysis caused by EPEC, which could involve translocator proteins at cell membrane level, we decided to explore whether peptides were also able to block effector proteins delivery and thus prevent the formation of A/E lesions in epithelial cells. Thus, peptides interfering in actin polymerization beneath E2348/69 strain adhering to HEp-2 cells were visualized by FAS (fluorescent actin staining). As expected, EPEC bacteria were able to induce actin polymerization for pedestal formation in almost all the cells (Fig. 2A), the A/E lesions were not seen in uninfected cells (Fig. 2B). CoilA or CoilB preincubation with EPEC caused a decrease in pedestal formation in epithelial cells, showing different effectiveness (Fig. 2C and Fig. 2D).
Figure 2 Coiled-coil peptides inhibit A/E lesion formation caused by EPEC. HEp-2 cells were incubated with EPEC E2348/69 either with or without coiled-coil peptides. […] Incubation of HEp-2 cells with the wild type EPEC E2348/69 strain without peptides (EPEC WT); preincubated with CoilA (EPEC+CoilA), or CoilB (EPEC+CoilB) peptide and uninfected cells. The corresponding percentage of HEp-2 cells carrying pedestals, obtained by examining 100 cells, is shown in panel E. EPEC pH represents a mock control to rule out the biological influence of alkaline pH used to dissolve peptides; PBS at alkaline pH was used in volumes identical to those in which peptides were added to HEp-2 cells.
HEp-2 cells (5×10^4) were seeded in eight well chamber slides (NUNC, Lab-Tek, USA) and incubated at 37°C under a 5% CO2 atmosphere up to 70–90% confluence. Overnight LB culture of the EPEC E2348/69 strain was diluted 1∶20 into 3 ml of DMEM and cultured for 1 h. CoilA, CoilB or CoilD peptides were then added to the culture at a concentration of 0.56 mg/ml and allowed to interact with the bacteria for 1 h at 37°C under a 5% CO2 atmosphere. […] The cells were observed under fluorescence microscopy with a confocal laser microscope (Leica TC SP2).

[6] = test system: EspA and Tir associated to HEp-2 cells infected with EPEC E2348/69; test: Western blot of EPEC-secreted proteins associated to HEp-2 cells; type: cell-based, enteropathogenic E. coli (EPEC) E2348/69; settings: HEp-2 cells treated 2 h with EPEC preincubated with peptide, washed, lysed
Method: To further determine the effect of CoilA and CoilB on EspA polymerization and Tir translocation were also examined by Western blotting. For that, HEp-2 cells were treated for 2 h with either EPEC alone or preincubated with each of the peptides and exhaustively washed. Cell extracts were prepared and the contents of EspA and Tir (Fig. 4) analyzed by Western blot using specific antibodies. […] The effective amount of EspA and Tir associated per cell may be even higher in non-treated (without peptides) cell cultures because it could be underestimated as some HEp-2 cells are detached from the surface upon infection. The pH buffering solution used to dilute CoilA and CoilB peptides had no effect and the results were similar to the positive control (Fig. 4).
Figure 4 CoilA and CoilB peptides block EspA polymerization and Tir translocation. Cell monolayers were infected with bacteria pretreated with peptides, washed, and lysed for Western blot detection of EspA and Tir proteins with specific rabbit antisera. pH represents a mock control to rule out the biological influence of alkaline pH used to dissolve peptides; PBS at alkaline pH was used in a volume identical to those in which peptides were added to HEp-2 cells.
as §2

[7] = test system: EspA polymerization and Tir translocation by EPEC E2348/69; test: Immunofluorescence of EspA and Tir on infected HEp-2 cells (confocal microscopy); type: cell-based, enteropathogenic E. coli (EPEC) E2348/69; settings: bacteria preincubated with peptide 0.56 mg/ml
Method: as §1

[8] = test system: EspA filaments on EPEC E2348/69; test: Immunogold labeling and TEM of EspA filaments; type: cell-based, enteropathogenic E. coli (EPEC) E2348/69; settings: EPEC incubated 4 h with peptide 0.56 mg/ml, fifty filaments, average with standard deviation, EPEC alone 700±150 nm
Method: Since coil peptides are able to inhibit the TTSS by blocking EspA polymerization, we expected a decrement in EspA filaments on the bacterial cell surface upon incubation with coil peptides.
Figure 6 CoilA peptide blocks the formation of EspA filaments. Immunogold EM of EspA filaments on EPEC cultures incubated either with or without CoilA peptide. After incubation of bacterial samples with specific rabbit anti-EspA serum, the samples were observed by TEM. EPEC alone, without peptides (A, C) and EPEC incubated with CoilA (B, D). Bars, 200 nm (A, B), or 100 nm (C, D). Yellow box frames show EspA filaments.
EPEC E2348/69 strain was grown in LB overnight at 37°C without shaking and diluted 1∶100 into DMEM with 0.56 mg/ml of either CoilA or CoilB, in 24-well plates. The plates were incubated for 4 h under a 5% CO2 atmosphere. A 50 µl droplet of bacterial culture was applied to nickel EM grids (mesh 200) coated with 0.25% Formvar resin (Structure Probe, Inc., SPI supplies, PA, USA) for 2 min. Cells were immediately fixed face down for 15 min with 0.1% buffered glutaraldehyde in PBS (pH 7.3). The grids were washed by transfer across 6 drops of PBS and blocked in PBS containing 0.2% bovine serum albumin for 30 min at room temperature. […] Fifty EspA filaments were identified and the size was measured the length is given as an average with a standard deviation.

Sequence	inhibition of TTSS-mediated RBC lysis caused by E2348/69 [1]	secretion of EspB to the culture supernatant, Western blot [2]	secretion of Tir in vitro, Western blot [2]	secretion of EspD, Western blot [2]	non-adherent bacteria in the supernatant of HEp-2 cells vs EPEC without peptides [3]	HEp-2 detaching activity (cytopathic effect) by EPEC [3]	tendency to precipitate / aggregation ([4]; observed in preparation for electron micrographs)	solubility in PBS (pH 10.0) ([4]; peptides solubilized with PBS pH 10.0)	HEp-2 cells showing pedestals [5]	Tir in the cells, Western blot [6]	amount of EspA associated to the cells and attached bacteria (incl. EspA polymers), Western blot [6]	secreted EspA (immunofluorescence) ([7]; anti-EspA sera)	translocated Tir (immunofluorescence) ([7]; anti-Tir sera)	hemolysis at reduced peptide concentration ([1]; peptide 0.15 mg/ml, preincubated with EPEC E2348/69, sheep RBC, relative to EPEC alone)	EspA filament length [8]
KVNIDENGNAI [PepTir]	did not show inhibitory activity	–	–	–	–	–	–	–	–	–	–	–	–	–	–
LSDSVPELLNSTDLV [CoilC]	did not show inhibitory activity	–	–	–	–	–	–	–	–	–	–	–	–	–	–
MSNTLNLLTSARSDM [CoilB]	around 95%	blocked the secretion of EspB	lightly decreased	affected	40 fold	absent	tendency to precipitate forming clumps	not completely soluble	2%	significant decrease	drastically decreased	–	–	–	–
LTTTVNNSQLEIQQM [CoilA]	around 95%	not clearly observed	lightly decreased	affected	7 fold	absent	–	–	20%	significant decrease	drastically decreased	drastic decrease	drastic decrease	50%	about 250±50 nm
VNDPEKMLELQFAVQ [CoilD]	25%	–	–	–	–	–	–	–	unable to inhibit pedestal formation	–	–	–	–	–	–
